# Source: patent publication US20030073731A1, “Compositions and methods of the use thereof achiral analogues of CC-1065 and the duocarmycins” (priority 2000, published 2003)
# Like-named read-outs stand apart in the source and are kept apart here.
# Key:
# HOP-92 = assay: cells; settings: Homo sapiens
# COLO 205 = assay: NCI in-vitro cytotoxicity screen, Colon Cancer panel; assay type: cell-based; settings: Homo sapiens
# Protocol: (§2) The compounds of this invention were also tested against the panel of 60 human cancer cell lines at the National Cancer Institute, Bethesda, Md. […] The cytotoxicity studies were conducted using a 48 hour exposure, and measuring the optical density of sulforhodamine B-derived color.
# [1] = test system: K562 human chronic myeloid leukemia cells; assay: cells; assay type: cell-based
# Protocol: The cytotoxicity was determined using a MTT tetrazolium dye assay (42). […] The incubation was terminated by centrifugation (5 minutes, 300 g) and the cells were washed once with drug-free medium. Following the appropriate drug treatment, the cells were transferred to 96-well microtitre plates, 10^4 cells per well, 8 wells per sample. Plates were then kept in the dark at 37° C. in a humidified atmosphere containing 5% CO2. […] Following incubation of the plates for 4 days (to allow control cells to increase in number by 10 fold) 20 μL of a 5 mg/mL solution of MTT in phosphate buffered saline was added to each well and the plates further incubated for 5 hours. The plates were then centrifuged for 5 minutes at 300 g and the bulk of the medium pipetted from the cell pellet leaving 10-20 μL per well. 200 μL DMSO was added to each well and the samples agitated to ensure complete mixing. The optical density was the read at a wavelength of 550 nm on a Titertek Multiscan ELISA plate reader, and the dose-response curve was constructed.
# UO-31 = assay: cells; settings: Homo sapiens
# [2] = NCI in-vitro cytotoxicity screen, Breast Cancer panel; assay type: cell-based, human; settings: Homo sapiens, read-out: LC50
# Protocol: as §2
# T-470 = assay: as above; assay type: cell-based, human; settings: T-470
# Protocol: as §2
# P815 mastocytoma cells = assay: cells; assay type: cell-based, murine; settings: Mus musculus; P815, 72 hr incubation
# Protocol: (§1) The P815 and L1210 cell lines were obtained from American Type Tissue Culture Collection (ATCC). The cell lines were grown in Delbecco's Modified Eagle Medium (DMEM, Atlanta Biologicals) supplemented with 10% fetal bovine serum, Hepes Buffer (2 mM, Mediatech Cellgro, 25-060-Cl), L-Glutamine (2 mM, Mediatech Cellgro), and penicillin/streptomycin (50,000 units penicillin, […] streptomycin, Atlanta Biologicals). Cells were maintained at 37° C. in a 5% humidified CO2 atmosphere. […] This cell suspension (100 μL) was added to 96 well flat-bottom cell culture plates. At this concentration, 80,000 cells were seeded in each well. Drug solutions (dissolved in DMSO and diluted in DMEM) were added to each well (5 μL/well) resulting in final concentrations ranging from […] to 1×10^−12 M. Quadruplicate wells were prepared for each drug concentration. The plates were incubated for 72 hr at 37° C. in a 5% CO2 atmosphere. MTT (3-(4,5-dimethylthiazol-2-yl)-2,5-diphenyl tetrazolium bromide) was dissolved in PBS (5 mg/ml). After the indicated cell incubation period, 10 μL of this stock MTT solution was added to each well and the plates were further incubated for 4 h at 37° C. in a 5% CO2 atmosphere. […] The contents of the well were mixed thoroughly by pipetting the cell suspension up and down and the plates were allowed to sit at room temperature for 15 min in order to allow for full development of the purple color. The plates were read on a Dynatech Plate Reader, utilizing Dynex Revelation 3.2 software, with a test wavelenth of 570 nm and a reference wavelength of […].
# L1210 leukemia cells = assay: cells; assay type: cell-based, murine; settings: Mus musculus; L1210, 72 hr incubation
# Protocol: as §1
# EKVX = assay: cells; settings: Homo sapiens
# A549/ATCC = assay: cells; settings: Homo sapiens, A549, read-out: LC50
# SNB-19 = assay: cells; settings: Homo sapiens
# OVCAR-3 = assay: cells; settings: Homo sapiens
# OVCAR-4 = assay type: cell-based, human
compound,measurement,setting,value
"COC(=O)c1[nH]c2c(O)cc(NC(=O)c3cc4cc(OC)c(OC)c(OC)c4[nH]3)c(CCCl)c2c1C(=O)OC [Compound 22, Dimethyl 4-(2-chloroethyl)-7-hydroxy-5-(5,6,7-trimethoxyindole-2-carboxamido)indole-2,3-dicarboxylate]",GI50,HOP-92; HOP-92,179 nM
same,CC50,"HOP-92; HOP-92, read-out: LC50",> 50000 nM
same,GI50,COLO 205; COLO 205,233 nM
same,CC50,"COLO 205; COLO 205, read-out: LC50",> 50000 nM
same,IC50,[1]; 1 hour exposure,310 ± 220 nM
same,IC50,"[1]; 72 h, continuous exposure (3 days)",250 ± 96 nM
same,GI50,UO-31; UO-31,98.8 nM
same,CC50,"UO-31; UO-31, read-out: LC50",> 50000 nM
same,CC50,[2],> 50000 nM
same,GI50,T-470; Homo sapiens,171 nM
same,Percent Growth,T-470; Log10 Concentration −4.3,14%
same,IC50,P815 mastocytoma cells,5400 nM
same,IC50,L1210 leukemia cells,4200 nM
same,GI50,EKVX,164 nM
same,CC50,EKVX; read-out: LC50,3250 nM
same,CC50,A549/ATCC,< 50000 nM
same,GI50,SNB-19; SNB-19,173 nM
same,CC50,"SNB-19; SNB-19, read-out: LC50",> 50000 nM
same,GI50,OVCAR-3; OVCAR-3,139 nM
same,CC50,"OVCAR-3; OVCAR-3, read-out: LC50",23000 nM
4-(2-Chloroethyl)-3-[5-(5-benzofuran-2-carboxamido)indole-2-carboxamido]phenol [Compound 1],GI50,OVCAR-4,2390 nM
same,TGI,OVCAR-4,5.06E-06 Molar
same,GI50,SK-OV-3,2930 nM
same,TGI,SK-OV-3,7.66E-06 Molar
same,GI50,MOLT-4,1140 nM
same,GI50,SK-MEL-28,2400 nM
same,TGI,SK-MEL-28,6.10E-06 Molar
same,GI50,M14,1490 nM
same,TGI,M14,3.19E-06 Molar
same,GI50,MCF7,1030 nM
same,TGI,MCF7,2.27E-06 Molar
same,GI50,SK-MEL-2,1320 nM
same,TGI,SK-MEL-2,2.67E-06 Molar
same,GI50,SN12C,3100 nM
same,TGI,SN12C,9.41E-06 Molar
same,GI50,MDA-MB-231/ATCC,2430 nM
same,TGI,MDA-MB-231/ATCC,7.10E-06 Molar
same,Percent Growth,MDA-MB-231/ATCC; Log10 Concentration (Molar) −4.0,−65%
same,Percent Growth,MDA-MB-231/ATCC; Log10 Concentration (Molar) −6.0,92%
same,Percent Growth,MDA-MB-231/ATCC; Log10 Concentration (Molar) −7.0,97%
same,Percent Growth,MDA-MB-231/ATCC; Log10 Concentration (Molar) −8.0,94%
same,GI50,HT29,2290 nM
same,TGI,HT29,1.115E-05 Molar
same,GI50,SK-MEL-5,1730 nM
same,TGI,SK-MEL-5,3.34E-06 Molar
same,GI50,SW-620,2010 nM
same,TGI,SW-620,8.19E-06 Molar
same,GI50,HCC-2998,1760 nM
same,TGI,HCC-2998,3.56E-06 Molar
